# Experimental data: US9458181B2, “Cathepsin cysteine protease inhibitors” (Merck Sharp & Dohme Corp., priority 2013, dated 2016)
# What was measured:
# human cathepsin F = molecular target: T1, human cathepsin F (Homo sapiens, UniProt Q9UBX1); assay: Cathepsin F assay (hCat F); format: biochemical; conditions: human cathepsin F 10 nM, Z-Phe-Arg-AMC 8 μM, pH 5.5, 15 min preincubation; read-out: hCat F IP
# T1 sequence (Q9UBX1 271-484): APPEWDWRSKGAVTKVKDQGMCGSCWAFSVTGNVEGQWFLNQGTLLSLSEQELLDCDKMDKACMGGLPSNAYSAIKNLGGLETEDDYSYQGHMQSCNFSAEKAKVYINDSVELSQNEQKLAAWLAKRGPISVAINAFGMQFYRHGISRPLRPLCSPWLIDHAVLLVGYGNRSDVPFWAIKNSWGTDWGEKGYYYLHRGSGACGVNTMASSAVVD
# Summary of the method: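 Human cathepsin F (10 nM) in 50 mM MES pH 5.5, 2.5 mM EDTA, 2.5 mM DTT, 10% DMSO was preincubated 15 min at RT with compounds from a ⅓ DMSO dilution series (500–0.025 μM stocks). Z-Phe-Arg-AMC was added (8 μM as added), and AMC release was read by fluorescence (360/460 nm) for 20 min. Percent inhibition was fitted to a dose-response model.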
# human cathepsin K = human cathepsin K (UniProt P43236); assay: Cathepsin K Assay (hrbCat K); format: biochemical; conditions: human cathepsin K 0.4 nM, Z-Leu-Arg-AMC 8 μM, pH 5.5, 15 min preincubation; read-out: hrbCat K IP
# Summary of the method: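 Human cathepsin K (0.4 nM) in pH 5.5 MES buffer with EDTA, DTT and 10% DMSO was preincubated 15 min at room temperature with compound from a ⅓ dilution series (500-0.025 μM DMSO stocks). Z-Leu-Arg-AMC (8 μM) was then added, and AMC release was followed fluorometrically (Ex 360/Em 460 nm) for 30 min; inhibition was fitted to a dose-response model.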
Structure (SMILES),IC50 (human cathepsin F),IC50 (human cathepsin K)
"CC1CC1(C#N)NC(=O)[C@@H]1CCCC[C@H]1c1oc(-c2ccc(F)cc2)nc1-c1ccc(N2CCS(=O)(=O)CC2)cc1 (single isomer, unassigned) [Example 134, (1R,2R)-N-((2S or 2R)-1-cyano-2-methylcyclopropyl)-2-(4-(4-(1,1-dioxidothiomorpholino)phenyl)-2-(4-fluorophenyl)oxazol-5-yl)cyclohexanecarboxamide]",≥ 10000 nM,2900 nM
"N#CC1(NC(=O)[C@@H]2CCCC[C@H]2c2oc(-c3cnc(C(F)(F)F)nc3)nc2-c2ccc(N3CCS(=O)(=O)CC3)cc2)CC1 [Example 85, (1R,2R)-N-(1-cyanocyclopropyl)-2-(4-(4-(1,1-dioxidothiomorpholino)phenyl)-2-(2-(trifluoromethyl)pyrimidin-5-yl)oxazol-5-yl)cyclohexanecarboxamide]",2520 nM,1.57 nM
"CC(C)(O)C(C#N)NC(=O)[C@@H]1CCCC[C@H]1c1oc(-c2ccc(F)cc2)nc1-c1ccc(N2CCS(=O)(=O)CC2)cc1 (single isomer, unassigned) [Example 159, (1R,2R)-N-((S or R)-1-cyano-2-hydroxy-2-methylpropyl)-2-(4-(4-(1,1-dioxidothiomorpholino)phenyl)-2-(4-fluorophenyl)oxazol-5-yl)cyclohexanecarboxamide]",6860 nM,43.2 nM
"N#CC1(NC(=O)[C@@H]2CCC(F)(F)C[C@H]2c2oc(-c3ccc(F)cc3)nc2-c2ccc(N3CCS(=O)(=O)CC3)cc2)CC1 [Example 139, (1R,2R)-N-(1-cyanocyclopropyl)-2-(4-(4-(1,1-dioxidothiomorpholino)phenyl)-2-(4-fluorophenyl)oxazol-5-yl)-4,4-difluorocyclohexane-carboxamide]",2420 nM,3.84 nM
"CC(C)(C)[C@@H](C#N)NC(=O)[C@@H]1CCCC[C@H]1c1oc(-c2ccc(F)cc2)nc1-c1ccc(N2CCS(=O)(=O)CC2)cc1 [Example 157, (1R,2R)-N-((S)-1-cyano-2,2-dimethylpropyl)-2-(4-(4-(1,1-dioxidothiomorpholino)phenyl)-2-(4-fluorophenyl)oxazol-5-yl)cyclohexanecarboxamide]",2330 nM,289 nM
"N#CC(NC(=O)[C@@H]1CC(F)(F)CC[C@H]1c1oc(C(F)(F)C(F)(F)F)nc1-c1ccc(C(=O)N2CCOCC2)cc1)C1CCOCC1 (single isomer, unassigned) [Example 144, (1R,2R)-N-((R or S)-cyano(tetrahydro-2H-pyran-4-yl)methyl)-5,5-difluoro-2-(4-(4-(morpholine-4-carbonyl)phenyl)-2-(perfluoroethyl)oxazol-5-yl)cyclohcxanccarboxamide]",≥ 10000 nM,1520 nM
"N#CC1(NC(=O)[C@@H]2CCCC[C@H]2c2oc(-c3ccccn3)nc2-c2ccc(N3CCS(=O)(=O)CC3)cc2)CC1 [Example 28, (1R,2R)-N-(1-cyanocyclopropyl)-2-(4-(4-(1,1-dioxidothiomorpholino)phenyl)-2-(pyridin-2-yl)oxazol-5-yl)cyclohexanecarboxamide]",1360 nM,1.26 nM
"CC(C)(C#N)NC(=O)[C@@H]1CCCC[C@H]1c1oc(-c2ccc(F)cc2F)nc1-c1ccc(N2CCS(=O)(=O)CC2)cc1 [Example 43, (1R,2R)-N-(2-cyanopropan-2-yl)-2-(2-(2,4-difluorophenyl)-4-(4-(1,1-dioxidothiomorpholino)phenyl)oxazol-5-yl)cyclohexanecarboxamide]",1650 nM,15.7 nM
"Cc1nc(-c2ccc(C(=O)NC3(C#N)CC3)cc2)c([C@@H]2CCCC[C@H]2C(=O)NC2(C#N)CC2)o1 [Example 21, N-(1-cyanocyclopropyl)-4-(5-((1R,2R)-2-((1-cyanocyclopropyl)carbamoyl)cyclohexyl)-2-methyloxazol-4-yl)benzamide]",≥ 10000 nM,61.9 nM
"N#CC1(NC(=O)[C@@H]2CCCC[C@H]2c2oc(-c3cc(C(F)(F)F)ccn3)nc2-c2ccc(N3CCS(=O)(=O)CC3)cc2)CC1 [Example 83, (1R,2R)-N-(1-cyanocyclopropyl)-2-(4-(4-(1,1-dioxidothiomorpholino)phenyl)-2-(4-(trifluoromethyl)pyridin-2-yl)oxazol-5-yl)cyclohexanecarboxamide]",4150 nM,1.3 nM
"N#CC1(NC(=O)[C@@H]2CCCC[C@H]2c2oc(C3CC4CCC(C3)C4(F)F)nc2-c2ccc(N3CCS(=O)(=O)CC3)cc2)CC1 (mixture of isomers) [Example 109, (1R,2R)-N-(1-cyanocyclopropyl)-2-(2-((1R,3R,5S and 1R,3S,5S)-8,8-difluorobicyclo[3.2.1]octan-3-yl)-4-(4-(1,1-dioxidothiomorpholino)phenyl)oxazol-5-yl)cyclohexanecarboxamide]",1500 nM,1.7 nM
"N#Cc1ccccc1-c1nc(-c2ccc(N3CCS(=O)(=O)CC3)cc2)c([C@@H]2CCCC[C@H]2C(=O)NC2(C#N)CC2)o1 [Example 105, (1R,2R)-N-(1-cyanocyclopropyl)-2-(2-(2-cyanophenyl)-4-(4-(1,1-dioxidothiomorpholino)phenyl)oxazol-5-yl)cyclohexanecarboxamide]",1920 nM,2.4 nM

# Stronger by IC50 (human cathepsin F), values ahead:
IC50 (human cathepsin F),IC50 (human cathepsin K),Structure (SMILES)
820 nM,2.51 nM,"CC1(c2nc(-c3ccc(N4CCS(=O)(=O)CC4)cc3)c([C@@H]3CCCC[C@H]3C(=O)NC3(C#N)CC3)o2)CCC(F)(F)CC1 [Example 52, (1R,2R)-N-(1-cyanocyclopropyl)-2-(2-(4,4-difluoro-1-methylcyclohexyl)-4-(4-(1,1-dioxidothiomorpholino)phenyl)oxazol-5-yl)cyclohexanecarboxamide]"
775 nM,1.17 nM,"N#CC1(NC(=O)[C@@H]2CCCC[C@H]2c2oc(-c3cncc(Cl)c3)nc2-c2ccc(N3CCS(=O)(=O)CC3)cc2)CC1 [Example 95, (1R,2R)-2-(2-(5-chloropyridin-3-yl)-4-(4-(1,1-dioxidothiomorpholino)phenyl)oxazol-5-yl)-N-(1-cyanocyclopropyl) cyclohexanecarboxamide]"
698 nM,1.6 nM,"N#CC1(NC(=O)[C@@H]2CCCC[C@H]2c2oc(Cc3ccccc3)nc2-c2ccc(N3CCS(=O)(=O)CC3)cc2)CC1 [Example 50, (1R,2R)-2-(2-benzyl-4-(4-(1,1-dioxidothiomorpholino)phenyl)oxazol-5-yl)-N-(1-cyanocyclopropyl) cyclohexanecarboxamide]"
631 nM,0.48 nM,"N#CC1(NC(=O)[C@@H]2CCCC[C@H]2c2oc(-c3cccc(Cl)c3F)nc2-c2ccc(N3CCS(=O)(=O)CC3)cc2)CC1 [Example 6, (1R,2R)-2-(2-(3-chloro-2-fluorophenyl)-4-(4-(1,1-dioxidothiomorpholino)phenyl)oxazol-5-yl)-N-(1-cyanocyclopropyl)cyclohexanecarboxamide]"
565 nM,0.48 nM,"N#CC1(NC(=O)[C@@H]2CCCC[C@H]2c2oc(-c3cccnc3)nc2-c2ccc(N3CCS(=O)(=O)CC3)cc2)CC1 [Example 29, (1R,2R)-N-(1-cyanocyclopropyl)-2-(4-(4-(1,1-dioxidothiomorpholino)phenyl)-2-(pyridin-3-yl)oxazol-5-yl)cyclohexanecarboxamide]"
492 nM,0.92 nM,"N#CC1(NC(=O)[C@@H]2CCCC[C@H]2c2oc(-c3cccc(F)c3)nc2-c2ccc(N3CCS(=O)(=O)CC3)cc2)CC1 [Example 62, (1R,2R)-N-(1-cyanocyclopropyl)-2-(4-(4-(1,1-dioxidothiomorpholino)phenyl)-2-(3-fluorophenyl)oxazol-5-yl)cyclohexanecarboxamide]"
372 nM,1.93 nM,"CS(=O)(=O)N1CCN(C(=O)c2ccc(-c3nc(C(F)(F)C(F)(F)F)oc3[C@@H]3CCC(F)(F)C[C@H]3C(=O)NC3(C#N)CC3)cc2)CC1 [Example 140, (1R,2R)-N-(1-cyanocyclopropyl)-5,5-difluoro-2-(4-(4-(4-(methylsulfonyl)piperazine-1-carbonyl)phenyl)-2-(perfluoroethyl)oxazol-5-yl)cyclohexanecarboxamide]"
178 nM,0.48 nM,"Cc1nc(-c2ccc(N3CCS(=O)(=O)CC3)cc2)c([C@@H]2CCC(F)(F)C[C@H]2C(=O)NC2(C#N)CC2)o1 [Example 18, (1R,2R)-N-(1-cyanocyclopropyl)-2-(4-(4-(1,1-dioxidothiomorpholino)phenyl)-2-methyloxazol-5-yl)-5,5-difluorocyclohexane-carboxamide]"
151 nM,12.4 nM,"N#CC1(NC(=O)[C@@H]2CC(C(F)F)CC[C@H]2c2oc(-c3ccc(F)cc3)nc2-c2ccc(N3CCS(=O)(=O)CC3)cc2)CC1 (mixture of isomers) [Example 138, (1R,2R,5R and 1R,2R,5S)-N-(1-cyanocyclopropyl)-5-(difluoromethyl)-2-(4-(4-(1,1-dioxidothiomorpholino)phenyl)-2-(4-fluorophenyl)oxazol-5-yl)cyclohexanecarboxamide]"
93 nM,0.58 nM,"N#CC1(NC(=O)[C@@H]2CC(F)(F)CC[C@H]2c2sc(CC(F)(F)F)nc2-c2ccc(N3CCS(=O)(=O)CC3)cc2)CC1 [Example 57, (1R,2R)-N-(1-cyanocyclopropyl)-2-(4-(4-(1,1-dioxidothiomorpholino)phenyl)-2-(2,2,2-trifluoroethyl)thiazol-5-yl)-5,5-difluorocyclohexane-carboxamide]"
